This note sets out measurements from US12263248B2, “Compounds and compositions for intracellular delivery of therapeutic agents” (ModernaTX, Inc., priority 2018, dated 2025).

As usually defined, the pKa is the negative logarithm of the acid dissociation constant.

The nature of series [1]: Particle size and polydispersity index of nanoparticle compositions (Zetasizer Nano ZS). Format: physicochemical. The note with it: Table 1A; for Size (nm): lipid:DSPC:cholesterol:PEG-DMG 50:10:38.5:1.5 mol %. The method, then:
A Zetasizer Nano ZS (Malvern Instruments Ltd, Malvern, Worcestershire, UK) can be used to determine the particle size, the polydispersity index (PDI) and the zeta potential of the nanoparticle compositions in 1×PBS in determining particle size and 15 mM PBS in determining zeta potential.

Series [2] is described as follows: Encapsulation efficiency of RNA (QUANT-IT RIBOGREEN RNA assay). The note with it: Table 1A. Format: physicochemical. As to the method:
For nanoparticle compositions including an RNA, a QUANT-IT™ RIBOGREEN® RNA assay (Invitrogen Corporation Carlsbad, CA) can be used to evaluate the encapsulation of an RNA by the nanoparticle composition. The samples are diluted to a concentration of approximately […] in a TE buffer solution (10 mM Tris-HCl, 1 mM EDTA, pH 7.5). 50 μL of the diluted samples are transferred to a polystyrene 96 well plate and either 50 μL of TE buffer or 50 μL of a 2% Triton X-100 solution is added to the wells. The plate is incubated at a temperature of 37° C. for 15 minutes. The RIBOGREEN® reagent is diluted 1:100 in TE buffer, and 100 μL of this solution is added to each well. The fluorescence intensity can be measured using a fluorescence plate reader (Wallac Victor 1420 Multilabel Counter; Perkin Elmer, Waltham, MA) at an excitation wavelength of, for example, about 480 nm and an emission wavelength of, for example, about 520 nm. The fluorescence values of the reagent blank are subtracted from that of each of the samples and the percentage of free RNA is determined by dividing the fluorescence intensity of the intact sample (without addition of Triton X-100) by the fluorescence value of the disrupted sample (caused by the addition of Triton X-100).

A short description of series [3]: Apparent (surface) pKa of the LNP formulation (TNS assay). To be noted: Table 1A. The format is physicochemical. The method, then: Using sodium hydroxide (1 M) and hydrochloric acid (1 M), 21 unique buffers were prepared from the master buffer stock at pH values between about 3 and 12. Next, a stock of 300 μM 6-(p-Toluidino)-2-naphthalenesulfonic acid sodium salt (TNS reagent) in DMSO was prepared and the LNP was mixed with the desired formulation buffer at a concentration of 0.04 mg/mL mRNA. This assay has been validated in 1× PBS and 20 mM Tris w/8% sucrose buffer. The buffer solutions at various pH values were added to a 96-well plate in triplicate for each pH. To each well was added 3.26 μL of LNP sample at a mRNA concentration of 0.04 mg/mL and 2.0 μL of 300 μM TNS reagent solution. After careful mixing, the resulting fluorescence values were read for each plate to create a sigmoidal plot of the fluorescence values vs. buffer pH. The […] inflection point of this curve is the apparent pKa of the LNP formulation.

Series [4] has as its system luciferase (Luc) mRNA. As to the kind of experiment: Luc expression, whole body bioluminescence after intravenous administration to mice. The note with it: for Fold increase in total body Luc Flux relative to MC3 at 6 h: Table 3A; for Fold increase in total body Luc Flux relative to MC3 at 6 h / flux measured at 6 h relative to the MC3 formulation: i.v. administration; for Total Flux 3 hours / Total Flux 6 hours / Total Flux 24 hours: mice, i.v., 0.5 mg/kg, Luc mRNA; for flux measured at 6 h relative to the MC3 formulation: in words. Format: in vivo. As to the method: In order to monitor how effectively various nanoparticle compositions deliver therapeutic and/or prophylactics to targeted cells, different nanoparticle compositions including a particular therapeutic and/or prophylactic (for example, a modified or naturally occurring RNA such as an mRNA) are prepared and administered to rodent populations. Mice are intravenously, intramuscularly, intraarterially, or intratumorally administered a single dose including a nanoparticle composition with a formulation such as those provided in Example 3. In some instances, mice may be made to inhale doses. Dose sizes may range from 0.001 mg/kg to 10 mg/kg, where 10 mg/kg describes a dose including 10 mg of a therapeutic and/or prophylactic in a nanoparticle composition for each 1 kg of body mass of the mouse. A control composition including PBS may also be employed.
Upon administration of nanoparticle compositions to mice, dose delivery profiles, dose responses, and toxicity of particular formulations and doses thereof can be measured by enzyme-linked immunosorbent assays (ELISA), bioluminescent imaging, or other methods. For nanoparticle compositions including mRNA, time courses of protein expression can also be evaluated. Samples collected from the rodents for evaluation may include blood, sera, and tissue (for example, muscle tissue from the site of an intramuscular injection and internal tissue); sample collection may involve sacrifice of the animals.
The efficacy of the nanoparticle compositions presented in Table 1A was evaluated with a bioluminescence study. Formulations were administered intravenously to mice (n=6) at a dosage of 0.5 mg/kg (mpk) and bioluminescence measured at 3, 6, and 24 hour time points. The standard MC3 formulation and, in some instances, a control (e.g., a PBS control) were evaluated for comparison. […] In general, flux decreased as time progressed to less than 10% of the initial flux.
(§1) Whole body and ex vivo organ bioluminescent imaging of mice: CD-1 mice were injected 15 minutes prior to the imaging timepoint intraperitoneally (IP) with 200 μL Xenolight D-luciferin K+ salt, diluted in PBS just prior to use to a concentration of 15 mg/mL. Ex vivo imaging of organs was completed within 25 minutes of luciferin administration. All images were quantified by region of interest for total flux.

The subject of series [5] is luciferase (Luc) mRNA. As to the kind of experiment: Luc expression in liver, lung, spleen and femur 6 hours after intravenous administration. The format is in vivo. To be noted: mice, 0.5 mpk; for Total Flux Liver / Total Flux Lung / Total Flux Spleen: intravenous. As to the method:
The efficacy of the nanoparticle compositions presented in Table 1A was further evaluated by measuring the expression of modified luciferase in the liver, lung, spleen, and femur upon administration of a given composition. Formulations were administered intravenously to mice (n=3) at a dosage of 0.5 mpk and bioluminescence measured after 6 hours. The standard MC3 formulation and a PBS control were also tested. […] Flux in the liver was lowest for compositions including Compounds 58, 59, 137, and 141. Flux in the spleen was highest for compositions including Compounds 4, 7, 33, 34, 48, 53, 108, 129, 130, and 148, and lowest for compositions including Compounds 9, 59, 124, and 141.
as §1

Regarding `CCCCCCCCCOC(=O)CCCCCCCN(CCO)CCCCCCCC(=O)OC(CCCCC)CCCCCCCC` (stereo not shown) [Compound 33, nonyl 8-((2-hydroxyethyl)(8-oxo-8-(tetradecan-6-yloxy)octyl)amino) octanoate], in series [1], the PDI came to 0.13 and the “Size (nm)” value was found to be 107.3 nm. Moreover, the “EE (%)” value in series [2] was 95.66%. The pKa in series [3] is listed as 6.80. For the same compound, in the series on luciferase (Luc) mRNA [4], the “Fold increase in total body Luc Flux relative to MC3 at 6 h” value is listed as 2.74, the “Total Flux 3 hours” value came out at 6.53E+10, the “Total Flux 6 hours” value was found to be 1.20E+11 and the “Total Flux 24 hours” value stood at 3.71E+09. Moreover, in the series with luciferase (Luc) mRNA [5] (i.v., in words), the “Flux in the liver” value is reported as “highest” and the “Flux in the spleen” value is “highest”. Moreover, in the series on luciferase (Luc) mRNA [5], the “Total Flux Liver” value is listed as 1.78E+10, the “Total Flux Lung” value came out at 2.92E+07 and the “Total Flux Spleen” value is on record as 3.77E+08.

Consider `CCCCCCCCCOC(=O)CCCCCCCN(CCO)CCCCCCCC(=O)OC(CCC)CCCCCCCC` (stereo not shown) [Compound 34, dodecan-4-yl 8-((2-hydroxyethyl)(8-(nonyloxy)-8-oxooctyl)amino) octanoate], for which, in series [1], the PDI stood at 0.14 and the “Size (nm)” value was 133.8 nm. The “EE (%)” value in series [2] was found to be 92.52%. In addition, the pKa in series [3] was found to be 6.64. In addition, in the series with luciferase (Luc) mRNA [4], the “Fold increase in total body Luc Flux relative to MC3 at 6 h” value is reported as 0.34, the “Total Flux 3 hours” value was 1.06E+10, the “Total Flux 6 hours” value stood at 1.48E+10 and the “Total Flux 24 hours” value was found to be 6.69E+08. Also, the “Flux in the spleen” value in the series with luciferase (Luc) mRNA [5] (i.v., in words) is listed as “highest”. Further, in the series on luciferase (Luc) mRNA [5], the “Total Flux Liver” value worked out at 2.08E+09, the “Total Flux Lung” value came out at 9.49E+06 and the “Total Flux Spleen” value is on record as 2.40E+08.

For the compound `CCCCCCCCCOC(=O)CCCCCCCN(CCO)CCCCCCCC(=O)OC(C)CCCCCCCC` (stereo not shown) [Compound 36, decan-2-yl 8-((2-hydroxyethyl)(8-(nonyloxy)-8-oxooctyl)amino) octanoate], in series [1], the PDI was 0.17 and the “Size (nm)” value worked out at 163.5 nm. The “EE (%)” value in series [2] came out at 81.45%. For the same compound, the pKa in series [3] is on record as 7.38. For the same compound, in the series on luciferase (Luc) mRNA [4], the “Fold increase in total body Luc Flux relative to MC3 at 6 h” value worked out at 0.004, the “Total Flux 3 hours” value was determined as 6.97E+07, the “Total Flux 6 hours” value is listed as 1.72E+08 and the “Total Flux 24 hours” value is reported as 4.44E+05. Besides, in the series on luciferase (Luc) mRNA [5], the “Total Flux Liver” value turned out to be 2.65E+07, the “Total Flux Lung” value is listed as 5.82E+05 and the “Total Flux Spleen” value worked out at 6.14E+07.

For `CCCCCCCCC(CCCCCCCC)OC(=O)CCCCCCCN(CCO)CCCC(=O)OCCCCCCC` [Compound 54, heptadecan-9-yl 8-((4-(heptyloxy)-4-oxobutyl)(2-hydroxyethyl)amino) octanoate], in series [1], the PDI is recorded as 0.19 and the “Size (nm)” value was 112.9 nm. Besides, the “EE (%)” value in series [2] is reported as 96.71%. For the same compound, the pKa in series [3] is 6.51. Besides, in the series on luciferase (Luc) mRNA [4], the “Fold increase in total body Luc Flux relative to MC3 at 6 h” value was found to be 3.80, the “flux measured at 6 h relative to the MC3 formulation” value is “higher flux than MC3 formulations”, the “Total Flux 3 hours” value is reported as 5.36E+10 and the “Total Flux 6 hours” value worked out at 4.18E+10. Also, the “Total Flux 24 hours” value in the series on luciferase (Luc) mRNA [4] is on record as 9.07E+08. In addition, in the series on luciferase (Luc) mRNA [5], the “Total Flux Liver” value is recorded as 5.57E+09, the “Total Flux Lung” value turned out to be 1.12E+07 and the “Total Flux Spleen” value is recorded as 1.64E+08.

`CCCCCCCCC(CCCCCCCC)OC(=O)CCCCCCCN(CCO)CCCC(=O)OCC1CC1CCCCCC` (stereo not shown) [Compound 55, heptadecan-9-yl 8-((4-((2-hexylcyclopropyl)methoxy)-4-oxobutyl)(2-hydroxyethyl)amino)octanoate]: in series [1], the PDI was determined as 0.16 and the “Size (nm)” value is given as 91.6 nm. Moreover, the “EE (%)” value in series [2] amounted to 97.03%. For the same compound, in series [3], the pKa is listed as 6.44. In addition, in the series with luciferase (Luc) mRNA [4], the “Fold increase in total body Luc Flux relative to MC3 at 6 h” value amounted to 1.52, the “flux measured at 6 h relative to the MC3 formulation” value is “higher flux than MC3 formulations”, the “Total Flux 3 hours” value is on record as 5.07E+10 and the “Total Flux 6 hours” value was determined as 1.68E+10. For the same compound, the “Total Flux 24 hours” value in the series on luciferase (Luc) mRNA [4] is reported as 4.06E+08. Besides, in the series with luciferase (Luc) mRNA [5], the “Total Flux Liver” value is 1.92E+09, the “Total Flux Lung” value is listed as 7.02E+06 and the “Total Flux Spleen” value is on record as 2.63E+07.

`CCCCCCCCC(CCCCCCCC)OC(=O)CCCCCCCN(CCO)CCCCCCCC(=O)OC(CCCCCCCC)C1CC1` (stereo not shown) [Compound 65, 1-Cyclopropylnonyl 8-((8-(heptadecan-9-yloxy)-8-oxooctyl)(2-hydroxyethyl)amino)octanoate]: in series [1], the PDI was determined as 0.12 and the “Size (nm)” value amounted to 63.9 nm. Moreover, in series [2], the “EE (%)” value amounted to 98.2%. Besides, in series [3], the pKa is recorded as 6.36. Besides, in the series with luciferase (Luc) mRNA [4], the “Fold increase in total body Luc Flux relative to MC3 at 6 h” value stood at 3.16, the “Total Flux 3 hours” value was found to be 6.56E+10, the “Total Flux 6 hours” value stood at 7.01E+10 and the “Total Flux 24 hours” value was 7.50E+08. Besides, in the series with luciferase (Luc) mRNA [5], the “Total Flux Liver” value stood at 9.56E+09, the “Total Flux Lung” value came out at 3.79E+07 and the “Total Flux Spleen” value is 6.57E+07.

With `CCCCCCCCC(CCCCCCCC)OC(=O)CCCCCCCN(CCO)CCCC(=O)OC1CCC(CCCCC)CC1` (stereo not shown) [Compound 67, Heptadecan-9-yl 8-((2-hydroxyethyl)(4-oxo-4-((4-pentylcyclohexyl)oxy)butyl)amino)octanoate], in series [1], the PDI was 0.13 and the “Size (nm)” value is 77 nm. Further, the “EE (%)” value in series [2] stood at 98%. In addition, in series [3], the pKa was 6.38. In the series on luciferase (Luc) mRNA [4], the “Fold increase in total body Luc Flux relative to MC3 at 6 h” value was determined as 2.08, the “Total Flux 3 hours” value stood at 4.24E+10, the “Total Flux 6 hours” value was determined as 4.62E+10 and the “Total Flux 24 hours” value was 4.51E+08. In the series on luciferase (Luc) mRNA [5], the “Total Flux Liver” value was 3.60E+09, the “Total Flux Lung” value was found to be 1.68E+07 and the “Total Flux Spleen” value turned out to be 2.55E+07.
